Paper PMC5578999, “Novel quinolone chalcones targeting colchicine-binding pocket kill multidrug-resistant cancer cells by inhibiting tubulin activity and MRP1 function” (Scientific Reports, 2017)

Columns and labels:
[1] = target: T1, MRP1 (Homo sapiens, UniProt P33527); assay: Calcein-AM retention assay, HEK293-MRP1 cells; type: cell-based; details: 22 µmol/L, DMSO control 52%
T1 construct: expressed in transfected cells; host or cells: HEK293-MRP1 (gift of Dr. Susan Cole)

[2] = system: NCI/ADR-RES; assay: NCI-60 SRB screen; type: cell-based
Text: (§1) Supplementary Figure l egend
(§2) 10μ M of CTR-20 was used to examine the drug’s efficac y against the NC I-60 cancer cell li nes including: six leukemia cell lines, nine non- small cell lung cancer cell lines, seven color ect al cancer cell lines, six CNS cancer cell lines, nine melanoma cell lines, seven ovari an can cer cell lines, seven ren al can cer cell lines, two prostate cancer cell lines and six breast cancer cell lines. The scr eenin g was car r ied out b y the US National Cancer Institute (NC I) us i n g a sulforhodamine B (SRB) colorimetric assay. […]
(§3) out by the NC I using five different doses of CTR -20.

[3] = system: SF-295; assay: NCI-60 SRB screen; type: cell-based
Text: as §1, §2, §3

[4] = system: NCI-H322M; assay: NCI-60 SRB screen; type: cell-based
Text: as §1, §2, §3

[5] = system: MCF7; assay: NCI-60 SRB screen; type: cell-based
Text: as §1, §2, §3

[6] = system: OVCAR-5; assay: NCI-60 SRB screen; type: cell-based
Text: as §1, §2, §3

[7] = system: OVCAR-4; assay: NCI-60 SRB screen; type: cell-based
Text: as §1, §2, §3

[8] = system: NCI-H23; assay: NCI-60 SRB screen; type: cell-based
Text: as §1, §2, §3

[9] = system: UACC-257; assay: NCI-60 SRB screen; type: cell-based
Text: as §1, §2, §3

[10] = system: RPMI-8226; assay: NCI-60 SRB screen; type: cell-based
Text: as §1, §2, §3

[11] = system: NCI-60 cancer cell lines; assay: NCI-60 SRB screen, panel means; type: cell-based; details: mean of panel
Text: Supplementary Table S 3: Antitumor activity of CTR -17 and CTR -20, alone or in combination […]
a Tax: paclitaxel. b mg per kg of bod y wei ght. c unit is mm 3.
as §1, §2, §3

[12] = target: T1, MRP1; assay: Rh123 dye efflux assay, HEK293-MRP1 cells; type: cell-based; details: 22 µmol/L of drug, DMSO control 39.6%
Method: Rhodamine123 (Rh123) drug efflux was carried out using a Multidrug-Resistance Direct Dye Efflux Activity Kit (Millipore, Darmstadt, Germany), with some modifications. […] Reading was carried out with a Beckman Coulter FC500 flow cytometer.

[13] = target: tubulin, colchicine-binding pocket; assay: Competitive colchicine-tubulin binding assay (modified Dixon plot); details: competitive with colchicine
Method: To determine the mode of binding, a competitive binding assay was carried out as described previously. Briefly, tubulin (0.4 μmol/L) was incubated with different concentrations of CTR for 1 hour at 37 °C. Subsequently, colchicine was added to the reaction mixture containing CTR-tubulin complexes. […] Fluorescence was monitored using an automated plate reader (Synergy H4 Hybrid Multi-Mode Micro plate Reader) with an excitation wavelength at 360 nm and emission at 430 nm. […] The experiment was repeated four times.

[14] = Homo sapiens, read-out: LC50 (the source's name)

T1 sequence (P33527 whole entry): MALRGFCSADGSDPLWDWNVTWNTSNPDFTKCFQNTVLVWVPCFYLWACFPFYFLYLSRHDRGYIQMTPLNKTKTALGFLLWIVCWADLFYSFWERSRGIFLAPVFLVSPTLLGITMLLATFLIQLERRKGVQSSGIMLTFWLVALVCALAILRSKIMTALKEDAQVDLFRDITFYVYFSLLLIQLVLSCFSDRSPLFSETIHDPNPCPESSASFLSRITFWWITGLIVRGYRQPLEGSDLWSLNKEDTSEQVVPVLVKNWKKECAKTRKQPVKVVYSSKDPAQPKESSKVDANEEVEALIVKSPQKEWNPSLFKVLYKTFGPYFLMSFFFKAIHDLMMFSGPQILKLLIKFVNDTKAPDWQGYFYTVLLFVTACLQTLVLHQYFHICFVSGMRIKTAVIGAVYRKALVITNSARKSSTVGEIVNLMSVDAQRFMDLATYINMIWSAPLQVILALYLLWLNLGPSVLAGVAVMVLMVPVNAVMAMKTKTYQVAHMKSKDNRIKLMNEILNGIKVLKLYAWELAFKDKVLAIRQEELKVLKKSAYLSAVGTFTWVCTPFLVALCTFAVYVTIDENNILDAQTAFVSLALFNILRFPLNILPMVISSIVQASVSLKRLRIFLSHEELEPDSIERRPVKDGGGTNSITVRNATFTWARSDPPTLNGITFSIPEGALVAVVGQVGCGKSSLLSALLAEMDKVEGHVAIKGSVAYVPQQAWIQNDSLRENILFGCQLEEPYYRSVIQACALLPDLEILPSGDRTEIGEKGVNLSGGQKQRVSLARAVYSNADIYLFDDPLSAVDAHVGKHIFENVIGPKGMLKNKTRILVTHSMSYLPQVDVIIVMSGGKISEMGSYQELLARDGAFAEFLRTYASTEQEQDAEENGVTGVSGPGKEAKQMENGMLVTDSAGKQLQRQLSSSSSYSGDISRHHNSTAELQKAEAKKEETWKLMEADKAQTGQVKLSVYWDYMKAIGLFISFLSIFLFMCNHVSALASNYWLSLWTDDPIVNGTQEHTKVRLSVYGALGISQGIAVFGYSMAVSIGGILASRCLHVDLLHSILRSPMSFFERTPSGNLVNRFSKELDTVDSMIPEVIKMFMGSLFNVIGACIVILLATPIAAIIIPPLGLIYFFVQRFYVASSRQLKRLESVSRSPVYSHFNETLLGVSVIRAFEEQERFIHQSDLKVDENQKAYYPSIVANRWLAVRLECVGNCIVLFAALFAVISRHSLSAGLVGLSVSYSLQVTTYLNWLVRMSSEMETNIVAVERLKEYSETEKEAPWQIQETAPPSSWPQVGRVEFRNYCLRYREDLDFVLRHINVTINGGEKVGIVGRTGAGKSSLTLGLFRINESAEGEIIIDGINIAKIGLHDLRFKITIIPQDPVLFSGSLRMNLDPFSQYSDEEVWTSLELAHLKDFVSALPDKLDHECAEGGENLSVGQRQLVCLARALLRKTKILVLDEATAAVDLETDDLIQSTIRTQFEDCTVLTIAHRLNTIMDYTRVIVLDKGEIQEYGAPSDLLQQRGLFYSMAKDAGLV

Compound: COc1ccc2[nH]c(=O)c(/C=C/C(=O)c3ccccc3OC)cc2c1 [CTR-20, (E)-6-Methoxy-3-(3-(2-methoxyphenyl)-3-oxoprop-1-enyl) quinolin-2(1H)-one]
- calcein-AM retained in the cells [1]: 72%
- Log10GI50 [2]: -6.56 Molar
- Log10LC50 [2]: > -4.00 Molar
- Log10TGI [2]: -4.70 Molar
- TGI [2]: 2.00E-5 Molar
- Growth Percent ([2]; 1.00E-5 Molar): 10.36%
- GI50 ([2]; Homo sapiens): 0.273 µM
- CC50 [2, 14]: > 100 µM
- Percent Growth ([2]; Log10 Concentration -4.0): -8%
- Percent Growth ([2]; Log10 Concentration -5.0): 3%
- Percent Growth ([2]; Log10 Concentration -6.0): 14%
- Percent Growth ([2]; Log10 Concentration -7.0): 78%
- Percent Growth ([2]; Log10 Concentration -8.0): 97%
- Log10GI50 [3]: -6.28 Molar
- Log10LC50 [3]: -4.42 Molar
- Log10TGI [3]: -4.92 Molar
- TGI [3]: 1.21E-5 Molar
- Growth Percent ([3]; 1.00E-5 Molar): 8.29%
- GI50 ([3]; Homo sapiens): 0.529 µM
- CC50 [3, 14]: 37.6 µM
- Percent Growth ([3]; Log10 Concentration -4.0): -93%
- Percent Growth ([3]; Log10 Concentration -5.0): 8%
- Percent Growth ([3]; Log10 Concentration -6.0): 33%
- Percent Growth ([3]; Log10 Concentration -7.0): 93%
- Percent Growth ([3]; Log10 Concentration -8.0): 89%
- Log10GI50 [4]: -5.62 Molar
- Log10LC50 [4]: -4.48 Molar
- Log10TGI [4]: -4.98 Molar
- TGI [4]: 1.04E-5 Molar
- Growth Percent ([4]; 1.00E-5 Molar): 18.31%
- GI50 ([4]; Homo sapiens): 2.4 µM
- CC50 [4, 14]: 33.5 µM
- Percent Growth ([4]; Log10 Concentration -4.0): -97%
- Percent Growth ([4]; Log10 Concentration -5.0): 2%
- Percent Growth ([4]; Log10 Concentration -6.0): 80%
- Percent Growth ([4]; Log10 Concentration -7.0): 93%
- Percent Growth ([4]; Log10 Concentration -8.0): 94%
- Log10GI50 [5]: -6.51 Molar
- Log10LC50 [5]: > -4.00 Molar
- Log10TGI [5]: -5.13 Molar
- TGI [5]: 7.48E-6 Molar
- Growth Percent ([5]; 1.00E-5 Molar): 10.02%
- GI50 ([5]; Homo sapiens): 0.312 µM
- CC50 [5, 14]: > 100 µM
- Percent Growth ([5]; Log10 Concentration -4.0): -44%
- Percent Growth ([5]; Log10 Concentration -5.0): -2%
- Percent Growth ([5]; Log10 Concentration -6.0): 16%
- Percent Growth ([5]; Log10 Concentration -7.0): 83%
- Percent Growth ([5]; Log10 Concentration -8.0): 86%
- Log10GI50 [6]: -5.71 Molar
- Log10LC50 [6]: -4.33 Molar
- Log10TGI [6]: -4.98 Molar
- TGI [6]: 1.04E-5 Molar
- Growth Percent ([6]; 1.00E-5 Molar): 12.07%
- GI50 ([6]; Homo sapiens): 1.97 µM
- CC50 [6, 14]: 46.6 µM
- Percent Growth ([6]; Log10 Concentration -4.0): -75%
- Percent Growth ([6]; Log10 Concentration -5.0): 1%
- Percent Growth ([6]; Log10 Concentration -6.0): 70%
- Percent Growth ([6]; Log10 Concentration -7.0): 98%
- Percent Growth ([6]; Log10 Concentration -8.0): 93%
- Log10GI50 [7]: -5.39 Molar
- Log10LC50 [7]: -4.11 Molar
- Log10TGI [7]: -4.63 Molar
- TGI [7]: 2.32E-5 Molar
- Growth Percent ([7]; 1.00E-5 Molar): 50.80%
- GI50 ([7]; Homo sapiens): 4.07 µM
- CC50 [7, 14]: 76.9 µM
- Percent Growth ([7]; Log10 Concentration -4.0): -61%
- Percent Growth ([7]; Log10 Concentration -5.0): 35%
- Percent Growth ([7]; Log10 Concentration -6.0): 73%
- Percent Growth ([7]; Log10 Concentration -7.0): 95%
- Percent Growth ([7]; Log10 Concentration -8.0): 94%
- Log10GI50 [8]: -5.88 Molar
- Log10LC50 [8]: -4.66 Molar
- Log10TGI [8]: -5.41 Molar
- TGI [8]: 3.93E-6 Molar
- Growth Percent ([8]; 1.00E-5 Molar): 21.29%
- GI50 ([8]; Homo sapiens): 1.33 µM
- CC50 [8, 14]: 21.6 µM
- Percent Growth ([8]; Log10 Concentration -4.0): -64%
- Percent Growth ([8]; Log10 Concentration -5.0): -43%
- Percent Growth ([8]; Log10 Concentration -6.0): 63%
- Percent Growth ([8]; Log10 Concentration -7.0): 87%
- Percent Growth ([8]; Log10 Concentration -8.0): 88%
- Log10GI50 [9]: -5.86 Molar
- Log10LC50 [9]: -5.17 Molar
- Log10TGI [9]: -5.52 Molar
- TGI [9]: 3.05E-6 Molar
- Growth Percent ([9]; 1.00E-5 Molar): 37.62%
- GI50 ([9]; Homo sapiens): 1.38 µM
- CC50 [9, 14]: 6.75 µM
- Percent Growth ([9]; Log10 Concentration -4.0): -100%
- Percent Growth ([9]; Log10 Concentration -5.0): -75%
- Percent Growth ([9]; Log10 Concentration -6.0): 70%
- Percent Growth ([9]; Log10 Concentration -7.0): 101%
- Percent Growth ([9]; Log10 Concentration -8.0): 98%
- Log10GI50 [10]: -6.41 Molar
- Log10LC50 [10]: > -4.00 Molar
- Log10TGI [10]: -5.66 Molar
- TGI [10]: 2.21E-6 Molar
- Growth Percent ([10]; 1.00E-5 Molar): 5.61%
- GI50 ([10]; Homo sapiens): 0.385 µM
- CC50 [10, 14]: > 100 µM
- Percent Growth ([10]; Log10 Concentration -4.0): -37%
- Percent Growth ([10]; Log10 Concentration -5.0): -20%
- Percent Growth ([10]; Log10 Concentration -6.0): 10%
- Percent Growth ([10]; Log10 Concentration -7.0): 106%
- Percent Growth ([10]; Log10 Concentration -8.0): 113%
- Mean Growth Percent ([11]; 1.00E-5 Molar): 13.21%
- Log10GI50 _MID [11]: -6.21 Molar
- Log10LC50 _MID [11]: -4.58 Molar
- Log10TGI _MID [11]: -5.29 Molar
- Rh123 retention [12]: 81.7%
- binding to the colchicine-binding pocket by Ki values, relative to CTR-17 [13]: approximately five times more strongly
